Measurements from patent publication US20250152585A1, “PHARMACEUTICAL COMPOUND” (Duke Street Bio Limited, priority 2022, published 2025).
Where two headings read alike, the source gives them in different places.

Legend:
[1] = target: T1, N-terminally FLAG-tagged PARP2 (amino acids 1-583) (Homo sapiens, UniProt Q9UGN5); test: PARP2 probe displacement HTRF assay; type: binding; conditions: binned Kd
T1 construct: N-terminally FLAG-tagged PARP2 (amino acids 1-583)
Procedure: Data analysis was performed identical as for PARP1.

[2] = target: T2, full length N-terminally FLAG-tagged PARP1 (Homo sapiens, UniProt P09874); test: PARP1 probe displacement HTRF assay; conditions: for Selectivity: PARP1 over PARP2, ratio Kd (PARP2)/Kd (PARP1); for Kd: binned Kd
T2 sequence (P09874 whole entry): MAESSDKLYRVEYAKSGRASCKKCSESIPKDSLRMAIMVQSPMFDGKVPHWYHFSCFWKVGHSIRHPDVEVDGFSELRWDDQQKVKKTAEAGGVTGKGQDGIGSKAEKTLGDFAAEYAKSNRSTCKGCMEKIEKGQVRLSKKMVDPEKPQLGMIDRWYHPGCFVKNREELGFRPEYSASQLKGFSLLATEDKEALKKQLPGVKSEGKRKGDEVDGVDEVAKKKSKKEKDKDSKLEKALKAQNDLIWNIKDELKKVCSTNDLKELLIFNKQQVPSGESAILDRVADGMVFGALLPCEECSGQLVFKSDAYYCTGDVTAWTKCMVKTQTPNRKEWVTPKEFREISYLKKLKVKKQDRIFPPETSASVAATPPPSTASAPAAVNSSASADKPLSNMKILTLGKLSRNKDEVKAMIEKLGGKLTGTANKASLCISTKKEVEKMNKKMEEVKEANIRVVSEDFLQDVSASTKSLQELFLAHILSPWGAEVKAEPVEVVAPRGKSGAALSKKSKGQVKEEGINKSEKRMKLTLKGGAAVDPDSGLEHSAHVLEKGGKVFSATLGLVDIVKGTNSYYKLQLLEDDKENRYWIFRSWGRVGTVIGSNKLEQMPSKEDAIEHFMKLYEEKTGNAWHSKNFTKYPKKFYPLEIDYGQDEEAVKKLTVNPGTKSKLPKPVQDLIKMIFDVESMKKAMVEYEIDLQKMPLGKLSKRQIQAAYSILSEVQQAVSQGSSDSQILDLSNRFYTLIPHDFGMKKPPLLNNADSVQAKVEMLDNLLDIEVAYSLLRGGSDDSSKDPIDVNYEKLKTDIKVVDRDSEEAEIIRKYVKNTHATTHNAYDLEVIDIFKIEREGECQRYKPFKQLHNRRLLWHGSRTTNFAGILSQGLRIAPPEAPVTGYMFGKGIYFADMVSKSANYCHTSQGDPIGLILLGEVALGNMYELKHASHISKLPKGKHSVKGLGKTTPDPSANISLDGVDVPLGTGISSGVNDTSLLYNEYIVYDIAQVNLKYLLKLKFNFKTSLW

[3] = target: T2, full length N-terminally FLAG-tagged PARP1; test: PARP1 biochemical DELFIA assay (auto-PARylation); set-up: recombinant full length human N-terminally FLAG-tagged PARP1
[4] = read-out: PARP1 HTRF, PARP1 probe displacement HTRF
[5] = binned IC50, PARP1 biochemical DELFIA assay
[6] = read-out: PARP1 HTRF, probe displacement HTRF
[7] = binned IC50, biochemical auto-PARylation assay
[8] = PARP1 HTRF, probe displacement HTRF

T1 sequence (Q9UGN5 whole entry, the tested form may be a part): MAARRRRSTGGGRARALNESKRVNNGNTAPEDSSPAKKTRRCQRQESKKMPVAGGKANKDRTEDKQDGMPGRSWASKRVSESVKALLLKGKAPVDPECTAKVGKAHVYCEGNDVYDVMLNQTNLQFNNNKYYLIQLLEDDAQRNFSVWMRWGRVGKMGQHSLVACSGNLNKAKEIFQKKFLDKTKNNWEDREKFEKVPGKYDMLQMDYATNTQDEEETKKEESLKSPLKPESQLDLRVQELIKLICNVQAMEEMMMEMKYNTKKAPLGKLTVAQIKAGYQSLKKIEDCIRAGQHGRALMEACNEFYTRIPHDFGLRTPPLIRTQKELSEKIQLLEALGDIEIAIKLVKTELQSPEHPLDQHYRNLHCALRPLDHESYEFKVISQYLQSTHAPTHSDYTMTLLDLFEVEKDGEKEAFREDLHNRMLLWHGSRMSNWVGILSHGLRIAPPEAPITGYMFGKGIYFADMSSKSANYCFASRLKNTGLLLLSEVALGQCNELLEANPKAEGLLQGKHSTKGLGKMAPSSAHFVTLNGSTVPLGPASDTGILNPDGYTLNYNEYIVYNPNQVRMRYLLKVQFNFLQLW

Compound	Kd ([1]; PARP2 probe displacement HTRF) [µM]	Selectivity ([2]; probe displacement HTRF)	Kd [2, 4] [µM]	IC50 [3, 5] [µM]	Kd ([1]; probe displacement HTRF) [µM]	Kd [2, 6] [µM]	IC50 [3, 7] [µM]	Kd [2, 8] [µM]
CNC(=O)c1ccc(N2CCC(N3CCC(c4cc5ncccc5c(=O)[nH]4)C3)CC2)cn1 (single isomer, unassigned) [Compound 218a]	> 10	+++ (+++ indicate a value of at least 100)	0.01 to 0.1	0.01 to 0.1				
O=c1[nH]c(C2CCN(C3CCN(c4ccc(C5=NCCN5)cc4)CC3)C2)nc2ccccc12 (racemic) [Compound 307rac]		− (− indicates a value of less than 10)			0.1 to 1	0.01 to 0.1	0.01 to 0.1	
Cc1n[nH]c(-c2ccc(N3CCC(N4CCC(c5nc6ccccc6c(=O)[nH]5)C4)CC3)cn2)n1 (racemic) [Compound 275rac]		+ (+ indicates a value of 10 to less than 50)			0.1 to 1	< 0.01	< 0.01	
CNC(=O)c1ccc(N2CCC(N3CCC(c4nc5cccc(F)c5c(=O)[nH]4)C3)CC2)cn1 (single isomer, unassigned) [Compound 101b]	0.1 to 1	+++ (+++ indicate a value of at least 100)	< 0.01	< 0.01				
CNC(=O)c1cc(C)c(N2CCC(N3CCC(c4nc5ccccc5c(=O)[nH]4)C3)CC2)c(C)n1 (single isomer, unassigned) [Compound 224a]		− (− indicates a value of less than 10)			1 to 10	1 to 10	0.1 to 1	
CNC(=O)c1ccc(N2CCC(N3CCCC(c4ncc(C(F)(F)F)c(=O)[nH]4)C3)CC2)cn1 (single isomer, unassigned) [Compound 73a]	> 10	− (− indicates a value of less than 10)	0.1 to 1	0.1 to 1				
CNC(=O)c1ccc(N2CCC(N3CCC(c4cc5c(c(C(F)(F)F)nn5C)c(=O)[nH]4)C3)CC2)cn1 (racemic) [Compound 244rac]		− (− indicates a value of less than 10)			< 0.01	< 0.01	< 0.01	
CS(=O)(=O)Nc1ccc(N2CCC(N3CCC(c4cc5ccccc5c(=O)[nH]4)C3)CC2)cc1 (single isomer, unassigned) [Compound 251a]		− (− indicates a value of less than 10)			1 to 10	0.1 to 1	0.1 to 1	
CNC(=O)c1ccc(N2CCC(N3CCCC(F)(c4nc5ccccc5c(=O)[nH]4)C3)CC2)cn1 (single isomer, unassigned) [Compound 71b]	> 10	+++ (+++ indicate a value of at least 100)	0.01 to 0.1	0.01 to 0.1				
CNC(=O)c1ccc(N2CCC(N3CCCC(c4nc5c(F)cccc5c(=O)[nH]4)C3)CC2)cn1 (single isomer, unassigned) [Compound 114b]	1 to 10	+ (+ indicates a value of 10 to less than 50)	0.1 to 1	0.1 to 1				
CNC(=O)c1ccc(N2CCC(N3CCC(c4cc5ccc(F)cc5c(=O)[nH]4)C3)CC2)c(C#N)n1 (single isomer, unassigned) [Compound 396b]		+++ (+++ indicate a value of at least 100)			0.1 to 1	< 0.01	< 0.01	
CCc1ccc(C2CCN(C3CCN(c4ccc(C#N)cc4)CC3)C2)[nH]c1=O (single isomer, unassigned) [Compound 317a]		− (− indicates a value of less than 10)			1 to 10	0.1 to 1	0.01 to 0.1	
CNC(=O)c1ccc(N2CCC(N3CCC(c4nc5ccc(Cl)cc5c(=O)[nH]4)C3)CC2)cn1 (single isomer, unassigned) [Compound 68b]	0.1 to 1	+ (+ indicates a value of 10 to less than 50)	< 0.01	0.01 to 0.1				
CNC(=O)c1ccc(N2CCC(N3CCC(c4nc5c(F)ccc(F)c5c(=O)[nH]4)C3)CC2)cn1 (single isomer, unassigned) [Compound 182a]	0.1 to 1	+ (+ indicates a value of 10 to less than 50)	0.01 to 0.1	0.01 to 0.1				
CCc1ccc(C2CCN(C3CCN(c4ccc(C(=O)NC5CC5)nc4)CC3)C2)[nH]c1=O (single isomer, unassigned) [Compound 338a]		+++ (+++ indicate a value of at least 100)			0.1 to 1	< 0.01	< 0.01	
CNC(=O)c1ccc(N2CCC(N3CCC(c4nc5c(c(=O)[nH]4)COC5)C3)CC2)cn1 (single isomer, unassigned) [Compound 272b]		+ (+ indicates a value of 10 to less than 50)			> 10	0.1 to 1	0.1 to 1	

Compound	Kd ([1]; PARP2 probe displacement HTRF) [µM]	Selectivity ([2]; probe displacement HTRF)	Kd [2, 4] [µM]	IC50 [3, 5] [µM]	Kd ([1]; probe displacement HTRF) [µM]	Kd [2, 6] [µM]	IC50 [3, 7] [µM]	Kd [2, 8] [µM]
CNC(=O)c1ccc(N2CCC(N3CCC(c4nc5cccc(Cl)c5c(=O)[nH]4)C3)CC2)cn1 (single isomer, unassigned) [Compound 85b]	0.01 to 0.1	++ (++ indicates a value of 50 to less than 100)	< 0.01	< 0.01				
CNC(=O)c1cnc(N2CCC(N3CCC(c4nc5ccccc5c(=O)[nH]4)C3)CC2)cn1 (single isomer, unassigned) [Compound 96a]	1 to 10	+ (+ indicates a value of 10 to less than 50)	0.01 to 0.1	0.01 to 0.1				
CNC(=O)c1ccc(N2CCC(N3CCC(c4cc5cccc(F)c5c(=O)[nH]4)C3)CC2)cc1F (single isomer, unassigned) [Compound 281b]		− (− indicates a value of less than 10)			0.1 to 1	0.1 to 1	0.1 to 1	
CNC(=O)c1cc(C(F)(F)F)c(N2CCC(N3CCC(c4cc5cccc(F)c5c(=O)[nH]4)C3)CC2)cn1 (single isomer, unassigned) [Compound 308a]		+ (+ indicates a value of 10 to less than 50)			1 to 10	0.1 to 1	0.1 to 1	
N#Cc1ccc(N2CCC(N3CCC(c4cc5cccc(F)c5c(=O)[nH]4)C3)CC2)c(F)c1 (single isomer, unassigned) [Compound 356b]		+ (+ indicates a value of 10 to less than 50)			1 to 10	0.1 to 1	0.1 to 1	
CNC(=O)c1ccc(N2CCC(N3CC4(c5nc6ncccc6c(=O)[nH]5)CC3C4)CC2)c(F)n1 [Compound 303]		+++ (+++ indicate a value of at least 100)			> 10		< 0.01	< 0.01
N#Cc1ccc(N2CCC(N3CCC(c4cc5cccc(F)c5c(=O)[nH]4)C3)CC2)nc1 (single isomer, unassigned) [Compound 340b]		+ (+ indicates a value of 10 to less than 50)			0.1 to 1	0.01 to 0.1	0.01 to 0.1	
CNC(=O)c1ccc(N2CCC(N3CCC(c4nc5ccccc5c(=O)[nH]4)C3)CC2)nc1 (single isomer, unassigned) [Compound 46a]	1 to 10	+++ (+++ indicate a value of at least 100)	0.01 to 0.1	< 0.01				
CNC(=O)c1ccc(N2CCC(N3CCC(c4nc5c(c(=O)[nH]4)NCCN5)C3)CC2)cn1 (racemic) [Compound 226rac]		++ (++ indicates a value of 50 to less than 100)			> 10	0.01 to 0.1	0.01 to 0.1	
CNC(=O)c1ccc(N2CCC(N3CC4(c5nc6c(c(=O)[nH]5)CCCN6C)CC3C4)CC2)c(F)n1 [Compound 375, 6-fluoro-N-methyl-5-(4-(4-(8-methyl-4-oxo-3,4,5,6,7,8-hexahydropyrido[2,3-d]pyrimidin-2-yl)-2-azabicyclo[2.1.1]hexan-2-yl)piperidin-1-yl)picolinamide]		+ (+ indicates a value of 10 to less than 50)			0.1 to 1		< 0.01	< 0.01
CCc1ccc(C2CCN(C3CCN(c4ccc(C(=O)NC)nc4C)CC3)C2)[nH]c1=O (single isomer, unassigned) [Compound 133b]	> 10	+++ (+++ indicate a value of at least 100)	0.01 to 0.1	0.01 to 0.1				
CNC(=O)c1ccc(N2CCC(N3CCC(c4nc5c(F)ccc(F)c5c(=O)[nH]4)C3)CC2)cn1 (single isomer, unassigned) [Compound 182b]	0.1 to 1	+++ (+++ indicate a value of at least 100)	< 0.01	< 0.01				
CCc1ccc(C2CCN(C3CCN(c4cnc(C(=O)NC)nc4C)CC3)C2)[nH]c1=O (single isomer, unassigned) [Compound 246a]		+ (+ indicates a value of 10 to less than 50)			> 10	0.1 to 1	0.1 to 1	
CNC(=O)c1ccc(N2CCC(N3CCC(c4nc5cc(F)ccc5c(=O)[nH]4)C3)CC2)cn1 (single isomer, unassigned) [Compound 92b]	1 to 10	+++ (+++ indicate a value of at least 100)	< 0.01	0.01 to 0.1				
CCc1ccc(C2CCN(C3CCN(c4ccc(C#N)nc4)CC3)C2)[nH]c1=O (single isomer, unassigned) [Compound 326b]		+++ (+++ indicate a value of at least 100)			1 to 10	< 0.01	0.01 to 0.1	
O=C(NCC(F)(F)F)c1ccc(N2CCC(N3CCCC(c4nc5ccccc5c(=O)[nH]4)C3)CC2)cn1 (single isomer, unassigned) [Compound 115b]	1 to 10	+++ (+++ indicate a value of at least 100)	0.01 to 0.1	0.01 to 0.1				
